Test results published in US8338465B2, “Cyclic carboxylic acid rhodanine derivatives for the treatment and prevention of tuberculosis” (priority 2006, dated 2012).
pIC50: −log10 of the molar value.

target: T1, dihydrolipoamide acyltransferase (DlaT) (Mycobacterium tuberculosis, UniProt P9WIS7); test: DlaT inhibition (Dlat IC50); DTNB peroxidase assay with Lpd, DlaT and AhpD; format: biochemical; details: Dlat IC50 category
T1 sequence (P9WIS7 1-553): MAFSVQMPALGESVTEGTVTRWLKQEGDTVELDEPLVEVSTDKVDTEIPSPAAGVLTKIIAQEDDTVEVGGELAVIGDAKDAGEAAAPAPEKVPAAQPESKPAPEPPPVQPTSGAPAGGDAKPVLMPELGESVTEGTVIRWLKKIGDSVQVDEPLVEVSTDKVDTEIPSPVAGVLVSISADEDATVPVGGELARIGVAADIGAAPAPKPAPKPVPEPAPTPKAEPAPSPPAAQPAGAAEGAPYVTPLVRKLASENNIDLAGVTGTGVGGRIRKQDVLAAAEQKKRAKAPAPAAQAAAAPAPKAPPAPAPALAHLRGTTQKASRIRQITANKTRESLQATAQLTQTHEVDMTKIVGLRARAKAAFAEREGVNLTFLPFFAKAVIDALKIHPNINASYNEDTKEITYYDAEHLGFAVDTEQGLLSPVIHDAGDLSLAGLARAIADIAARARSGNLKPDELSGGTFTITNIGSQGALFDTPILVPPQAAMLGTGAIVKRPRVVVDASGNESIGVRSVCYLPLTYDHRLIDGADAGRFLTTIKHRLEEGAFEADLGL

| SMILES | pIC50 |
| --- | --- |
| O=C(O)C(c1ccccc1)N1C(=O)C(=Cc2ccc(-c3ccccc3Cl)o2)SC1=S (stereo not shown) [Compound B1] | > 5.00 |
| O=C(O)C(c1ccccc1)N1C(=O)C(=Cc2ccc(-c3cccc(Cl)c3)o2)SC1=S (stereo not shown) [Compound B2] | > 5.00 |
| O=C(O)CCN1C(=O)C(=Cc2ccc(-c3cccc(C(F)(F)F)c3)o2)SC1=S [Compound B3] | > 5.00 |
| O=C(O)CCN1C(=O)C(=Cc2ccc(-c3ccccc3C(F)(F)F)o2)SC1=S [Compound B4] | 4.40 to 4.96 |
| O=C(O)CCN1C(=O)C(=Cc2ccc(-c3ccccc3Cl)o2)SC1=S [Compound B5] | 4.40 to 4.96 |
| O=C(O)CN1C(=O)C(=Cc2ccc(-c3ccccc3Cl)o2)SC1=S [Compound B6] | 4.40 to 4.96 |
| O=C(O)CCN1C(=O)C(=Cc2cccc(-c3ccccc3Cl)n2)SC1=S [Compound B7] | 4.10 to 4.39 |
| O=C(O)C(c1ccccc1)N1C(=O)C(=Cc2cccc(-c3ccccc3Cl)n2)SC1=S (stereo not shown) [Compound B8] | 4.40 to 4.96 |
| O=C(O)C(c1ccccc1)N1C(=O)C(=Cc2ccc(-c3ccc(Cl)cc3)o2)SC1=S (stereo not shown) [Compound B9] | > 5.00 |
| O=C(O)C(c1ccccc1)N1C(=O)C(=Cc2ccc(-c3ccc(Cl)c(Cl)c3)o2)SC1=S (stereo not shown) [Compound B10] | > 5.00 |
| O=C(O)CCCCCN1C(=O)C(=Cc2ccc(-c3ccccc3Cl)o2)SC1=S [Compound B11] | > 5.00 |
| O=C(O)CCCCCN1C(=O)C(=Cc2ccc(-c3cccc(Cl)c3)o2)SC1=S [Compound B12] | > 5.00 |
| O=C(O)CCCCCN1C(=O)C(=Cc2ccc(-c3ccc(Cl)cc3)o2)SC1=S [Compound B13] | > 5.00 |
| O=C(O)CCCCCN1C(=O)C(=Cc2ccc(-c3ccc(Cl)c(Cl)c3)o2)SC1=S [Compound B14] | > 5.00 |
| O=C(O)CCCCCN1C(=O)C(=Cc2cccc(-c3ccccc3Cl)n2)SC1=S [Compound B15] | 4.40 to 4.96 |
| O=C(O)CN1C(=O)C(=Cc2ccc(-c3ccc(-c4ccccc4)cc3)o2)SC1=S [Compound B16] | > 5.00 |
| O=C(O)CCN1C(=O)C(=Cc2ccc(-c3ccc(-c4ccccc4)cc3)o2)SC1=S [Compound B17] | 4.40 to 4.96 |
| O=C(O)CCCCCN1C(=O)C(=Cc2ccc(-c3ccc(-c4ccccc4)cc3)o2)SC1=S [Compound B18] | > 5.00 |
| O=C(O)C(c1ccccc1)N1C(=O)C(=Cc2ccc(-c3ccc(-c4ccccc4)cc3)o2)SC1=S (stereo not shown) [Compound B19] | > 5.00 |
| O=C(O)CCCCCN1C(=O)C(=Cc2ccc(-c3cc(C(F)(F)F)ccc3Cl)o2)SC1=S [Compound B20] | > 5.00 |
| COc1ccc(-c2ccc(C=C3SC(=S)N(CCCCCC(=O)O)C3=O)o2)cc1Cl [Compound B21] | 4.40 to 4.96 |
| O=C(O)CCCCCN1C(=O)C(=Cc2ccc(-c3cccc(C(F)(F)F)c3)o2)SC1=S [Compound B22] | > 5.00 |

| SMILES | pIC50 |
| --- | --- |
| O=C(O)CCCCCN1C(=O)C(=Cc2ccc(-c3ccccc3C(F)(F)F)o2)SC1=S [Compound B23] | 4.40 to 4.96 |
| O=C(O)CCCCCN1C(=O)C(=Cc2ccc(-c3ccccc3OC(F)(F)F)o2)SC1=S [Compound B24] | > 5.00 |
| O=C(O)C(c1ccccc1)N1C(=O)C(=Cc2ncc(-c3cccc(C(F)(F)F)c3)s2)SC1=S (stereo not shown) [Compound B25] | > 5.00 |
| O=C(O)CCN1C(=O)C(=Cc2ccc(-c3ccc(O)cc3)o2)SC1=S [Compound B26] | 4.10 to 4.39 |
| O=C(O)CCCCCN1C(=O)C(=Cc2ccc(-c3ccc(O)cc3)o2)SC1=S [Compound B27] | > 5.00 |
| O=C(O)C(c1ccccc1)N1C(=O)C(=Cc2ccc(-c3ccc(Oc4ccccc4)cc3)o2)SC1=S (stereo not shown) [Compound B28] | 4.40 to 4.96 |
| O=C(O)C(c1ccccc1)N1C(=O)C(=Cc2ccc(-c3ccc(O)cc3)o2)SC1=S (stereo not shown) [Compound B29] | 4.40 to 4.96 |
| O=C(O)CN1C(=O)C(=Cc2ccc(-c3ccc(Cc4ccccc4)cc3)o2)SC1=S [Compound B30] | > 5.00 |
| O=C(O)CCN1C(=O)C(=Cc2ccc(-c3ccc(Cc4ccccc4)cc3)o2)SC1=S [Compound B31] | > 5.00 |
| O=C(O)C(c1ccccc1)N1C(=O)C(=Cc2ccc(-c3ccc(Cc4ccccc4)cc3)o2)SC1=S (stereo not shown) [Compound B32] | > 5.00 |
| O=C(O)CCCCCN1C(=O)C(=Cc2ccc(-c3ccc(Cc4ccccc4)cc3)o2)SC1=S [Compound B33] | 4.40 to 4.96 |
| O=C(O)CCCCCN1C(=O)C(=Cc2ncc(-c3cccc(Cl)c3)o2)SC1=S [Compound B34] | 4.40 to 4.96 |
| O=C(O)C(c1ccccc1)N1C(=O)C(=Cc2ncc(-c3cccc(Cl)c3)o2)SC1=S (stereo not shown) [Compound B35] | 4.40 to 4.96 |
| O=C(O)[C@@H](c1ccccc1)N1C(=O)C(=Cc2ccc(-c3ccc(Cl)cc3)o2)SC1=S [Compound B36] | > 5.00 |
| O=C(O)[C@H](c1ccccc1)N1C(=O)C(=Cc2ccc(-c3ccc(Cl)cc3)o2)SC1=S [Compound B37] | > 5.00 |
| O=C(O)C(c1ccccc1)N1C(=O)C(=Cc2cc(-c3cccc(C(F)(F)F)c3)co2)SC1=S (stereo not shown) [Compound B38] | > 5.00 |
| O=C(O)CCCCCN1C(=O)C(=Cc2cc(-c3cccc(C(F)(F)F)c3)co2)SC1=S [Compound B39] | 4.40 to 4.96 |
| O=C(O)C(Cc1ccccc1)N1C(=O)C(=Cc2ccc(-c3cccc(C(F)(F)F)c3)o2)SC1=S (stereo not shown) [Compound B40] | > 5.00 |
| O=C(O)C(Cc1ccccc1)N1C(=O)C(=Cc2ccc(-c3ccccc3Cl)o2)SC1=S (stereo not shown) [Compound B41] | > 5.00 |
| O=C(O)C(Cc1ccccc1)N1C(=O)C(=Cc2ccc(-c3ccc(Cl)cc3)o2)SC1=S (stereo not shown) [Compound B42] | > 5.00 |
| O=C(O)CN1C(=O)C(=Cc2ccc(-c3ccc(Cl)cc3Cl)o2)SC1=S [Compound B43] | > 5.00 |

same assay, conditions: Table 1, Compounds A1 to A294; read-out: Dlat IC50 category

| SMILES | pIC50 |
| --- | --- |
| CC(=O)Nc1ccc(-c2ccc(C=C3SC(=S)N(c4ccc(F)c(C(=O)O)c4)C3=O)o2)cc1 [Compound A262] | 4.40 to 4.96 |
| CCCCc1ccc(-c2ccc(C=C3SC(=S)N(c4cccc(C(=O)O)c4)C3=O)o2)cc1 [Compound A263] | > 5.00 |
| CCCCc1ccc(-c2ccc(C=C3SC(=S)N(c4cc(C(=O)O)ccc4F)C3=O)o2)cc1 [Compound A264] | > 5.00 |
| CCCCc1ccc(-c2ccc(C=C3SC(=S)N(c4ccc(F)c(C(=O)O)c4)C3=O)o2)cc1 [Compound A265] | > 5.00 |
| CCCCc1ccc(-c2ccc(C=C3SC(=S)N(c4cc(C(=O)O)cc(C(F)(F)F)c4)C3=O)o2)cc1 [Compound A266] | > 5.00 |
| CS(=O)(=O)c1ccc(-c2ccc(C=C3SC(=S)N(c4cc(C(=O)O)cc(C(F)(F)F)c4)C3=O)o2)cc1 [Compound A267] | > 5.00 |
| CS(=O)(=O)c1ccc(-c2ccc(C=C3SC(=S)N(c4ccc(F)c(C(=O)O)c4)C3=O)o2)cc1 [Compound A268] | > 5.00 |
| CCCc1ccc(-c2ccc(C=C3SC(=S)N(c4cccc(C(=O)O)c4)C3=O)o2)cc1 [Compound A269] | > 5.00 |
| CCCc1ccc(-c2ccc(C=C3SC(=S)N(c4cc(C(=O)O)ccc4F)C3=O)o2)cc1 [Compound A270] | > 5.00 |
| CCCc1ccc(-c2ccc(C=C3SC(=S)N(c4ccc(F)c(C(=O)O)c4)C3=O)o2)cc1 [Compound A271] | > 5.00 |
| CCCc1ccc(-c2ccc(C=C3SC(=S)N(c4cc(C(=O)O)cc(C(F)(F)F)c4)C3=O)o2)cc1 [Compound A272] | 4.40 to 4.96 |
| CN(C)c1ccc(N2C(=O)C(=Cc3ccc(-c4ccccc4Cl)o3)SC2=S)cc1C(=O)O [Compound A274] | 4.40 to 4.96 |
| CN(C)c1ccc(N2C(=O)C(=Cc3ccc(-c4cccc(Cl)c4)o3)SC2=S)cc1C(=O)O [Compound A275] | 4.40 to 4.96 |
| O=C(O)c1cc(N2C(=O)C(=Cc3ccc(-c4ccccc4OCc4ccccc4)o3)SC2=S)ccc1F [Compound A279] | > 5.00 |
| O=C(O)c1cc(N2C(=O)C(=Cc3ccc(-c4ccccc4C(F)(F)F)o3)SC2=S)ccc1F [Compound A280] | 4.40 to 4.96 |
| O=C(O)c1cc(N2C(=O)C(=Cc3ccc(-c4ccccc4OC(F)(F)F)o3)SC2=S)ccc1F [Compound A281] | > 5.00 |
| CSc1ccccc1-c1ccc(C=C2SC(=S)N(c3ccc(F)c(C(=O)O)c3)C2=O)o1 [Compound A282] | > 5.00 |
| O=C(O)c1cc(N2C(=O)C(=Cc3ccc(-c4ccccc4Oc4ccccc4)o3)SC2=S)ccc1F [Compound A283] | > 5.00 |
| O=C(O)c1cc(N2C(=O)C(=Cc3ccc(-c4ccccc4-c4ccccc4)o3)SC2=S)ccc1F [Compound A284] | > 5.00 |
| CNS(=O)(=O)c1ccc(-c2ccc(C=C3SC(=S)N(c4cccc(C(=O)O)c4)C3=O)o2)cc1 [Compound A286] | 4.40 to 4.96 |
| CNS(=O)(=O)c1ccc(-c2ccc(C=C3SC(=S)N(c4ccc(F)c(C(=O)O)c4)C3=O)o2)cc1 [Compound A287] | 4.40 to 4.96 |
| NS(=O)(=O)c1ccc(-c2ccc(C=C3SC(=S)N(c4cccc(C(=O)O)c4)C3=O)o2)cc1 [Compound A288] | 4.40 to 4.96 |
| O=C(O)c1ccc(-c2ccc(C=C3SC(=S)N(c4ccccc4)C3=O)o2)cc1O [Compound A289] | > 5.00 |
| O=C(O)c1ccc(-c2ccc(C=C3SC(=S)N(c4cccc(O)c4)C3=O)o2)cc1 [Compound A290] | > 5.00 |
| O=C(O)c1ccc(-c2ccc(C=C3SC(=S)N(c4ccc(O)cc4)C3=O)o2)cc1 [Compound A291] | > 5.00 |
| NC(=O)c1cccc(N2C(=O)C(=Cc3ccc(-c4ccc(C(=O)O)cc4)o3)SC2=S)c1 [Compound A293] | 4.40 to 4.96 |
| NS(=O)(=O)c1ccc(N2C(=O)C(=Cc3ccc(-c4ccc(C(=O)O)cc4)o3)SC2=S)cc1 [Compound A294] | > 5.00 |
